Data from patent US6277825A (priority 1999, dated 2001).
Several values for one entry are separate records, joined by “and”; a condition that tells them apart may be missing. Identical values can stand only once.

How the values were obtained:
[1] = system: young (<2 weeks old) mice; assay type: in vivo; conditions: mouse, in vivo
[2] = system: young (<2 weeks old) mice; assay type: in vivo; conditions: mouse, in vivo; remark: listed apart in the source
[3] = system: young (<2 weeks old) mice; assay type: in vivo; conditions: mouse, in vivo; remark: listed apart in the source
[4] = system: CF No. 1 mice; conditions: mouse, in vivo
[5] = system: Frings audiogenic seizure-susceptible mice; conditions: mouse, in vivo
[6] = system: CF #1 Mice; design: TD50: unit not given beside the values; conditions: mouse, in vivo
[7] = target: T1, NR1-1b/NR2B NMDA subtype (Homo sapiens, UniProt Q05586+Q13224); test: cell-based
T1 construct: expressed in transfected cells; host or cells: oocytes
T1 sequence (Q13224 27-1484, other chains not shown): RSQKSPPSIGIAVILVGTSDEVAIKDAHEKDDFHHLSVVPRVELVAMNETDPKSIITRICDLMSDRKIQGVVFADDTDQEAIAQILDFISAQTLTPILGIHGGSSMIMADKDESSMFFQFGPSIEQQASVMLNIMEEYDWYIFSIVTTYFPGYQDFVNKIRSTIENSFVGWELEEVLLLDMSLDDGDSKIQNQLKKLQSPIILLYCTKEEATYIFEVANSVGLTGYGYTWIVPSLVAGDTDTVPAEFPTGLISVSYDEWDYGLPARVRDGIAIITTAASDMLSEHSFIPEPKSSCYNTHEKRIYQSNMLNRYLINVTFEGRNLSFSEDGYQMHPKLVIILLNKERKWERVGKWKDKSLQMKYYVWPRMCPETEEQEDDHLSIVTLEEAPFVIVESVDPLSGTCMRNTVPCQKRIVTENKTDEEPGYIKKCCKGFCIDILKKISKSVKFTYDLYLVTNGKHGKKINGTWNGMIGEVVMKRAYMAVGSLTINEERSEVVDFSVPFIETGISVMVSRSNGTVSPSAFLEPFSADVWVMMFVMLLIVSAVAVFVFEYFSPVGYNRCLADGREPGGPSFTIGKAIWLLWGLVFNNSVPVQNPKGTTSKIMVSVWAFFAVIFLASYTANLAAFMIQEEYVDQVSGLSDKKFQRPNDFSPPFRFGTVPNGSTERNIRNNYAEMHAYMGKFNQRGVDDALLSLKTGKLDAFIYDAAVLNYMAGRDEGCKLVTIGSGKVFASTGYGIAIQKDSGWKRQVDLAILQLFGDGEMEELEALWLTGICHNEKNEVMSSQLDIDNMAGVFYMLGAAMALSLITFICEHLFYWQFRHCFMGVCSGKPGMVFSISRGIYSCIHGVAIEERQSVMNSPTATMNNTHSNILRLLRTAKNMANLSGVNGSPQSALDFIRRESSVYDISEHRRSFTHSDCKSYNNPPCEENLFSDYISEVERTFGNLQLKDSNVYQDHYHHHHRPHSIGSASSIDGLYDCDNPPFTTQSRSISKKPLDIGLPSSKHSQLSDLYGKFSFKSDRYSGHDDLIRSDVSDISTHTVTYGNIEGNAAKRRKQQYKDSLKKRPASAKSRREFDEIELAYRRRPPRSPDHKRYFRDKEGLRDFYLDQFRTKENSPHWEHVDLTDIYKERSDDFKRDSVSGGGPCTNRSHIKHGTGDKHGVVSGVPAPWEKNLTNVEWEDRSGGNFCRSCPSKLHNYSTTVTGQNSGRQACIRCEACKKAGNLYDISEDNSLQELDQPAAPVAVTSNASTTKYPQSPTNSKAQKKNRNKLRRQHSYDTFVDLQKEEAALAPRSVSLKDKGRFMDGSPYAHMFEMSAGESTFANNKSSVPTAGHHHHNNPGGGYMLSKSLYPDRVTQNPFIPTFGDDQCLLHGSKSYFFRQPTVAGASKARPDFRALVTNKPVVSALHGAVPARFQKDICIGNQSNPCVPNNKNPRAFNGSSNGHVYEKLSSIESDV

Molecule	Catalepsy Test, positive mice/tested [1]	Righting Reflex, mice that lost reflex/tested [2]	Sleepy Test, positive mice/tested [3]	anticonvulsant activity [4]	also measured
Conantokin Oc [Con Oc]	0/3	0/3	2/3 and 0/3	–	–
Conantokin L [Con L]	4/4 and 3/4	2/4 and 3/4	4/4	anticonvulsant activity	–
CC[C@H](C)[C@H](NC(=O)[C@H](CC(N)=O)NC(=O)[C@H](CC(C(=O)O)C(=O)O)NC(=O)[C@H](CCCNC(=N)N)NC(=O)[C@H](C)NC(=O)[C@H](CC(C)C)NC(=O)[C@H](CC(C(=O)O)C(=O)O)NC(=O)[C@H](C)NC(=O)[C@H](C)NC(=O)[C@H](CCSC)NC(=O)[C@H](CCCCN)NC(=O)[C@H](C)NC(=O)[C@@H](NC(=O)[C@H](CC(C(=O)O)C(=O)O)NC(=O)[C@H](CC(C(=O)O)C(=O)O)NC(=O)[C@H](CCC(=O)O)NC(=O)CN)C(C)C)C(=O)N[C@@H](C)C(=O)N[C@@H](CCCCN)C(=O)NCC(=O)N[C@H]1CSSC[C@@H](C(=O)N[C@@H](Cc2ccc(O)cc2)C(=O)N2CCC[C@H]2C(=O)O)NC(=O)[C@H](CC(N)=O)NC(=O)[C@H](C(C)C)NC(=O)[C@H](CCCCN)NC1=O [Con R, Conantokin R]	–	–	–	–	P.I. (TD50/ED50) [5]: 17; Protective Index, PI (TD50/ED50) [5]: 18; TD50 [5]: 0.228; protective index relative to that of valproic acid [5]: at least eight times better; P.I. (TD50/ED50) [6]: 3.6; TD50 [6]: ~ 0.300; Ki [7]: 140 nM; inhibition at 3 µM ([7]; read-out: inhibition of the current produced in response to glutamate and glycine): ~95%
Conantokin Ca2 [Con Ca2]	–	–	–	anticonvulsant activity	–
Conantokin Gm [Con Gm]	–	–	–	anticonvulsant activity	–
Conantokin Qu [Con Qu]	–	–	–	anticonvulsant activity	–
